pIC50: −log10 of the molar value.
System: Leishmania donovani
Test: Antileishmanial activity against Leishmania donovani promastigotes
Type: functional, organism-based

SMILES	pIC50 (read-out: IC50)	IC50 (read-out: pIC50 (converted))	IC50 (read-out: IC50)
CC1(C)[C@H]2C[C@@H]3Cc4c(O)c(C=O)c(O)c(C=O)c4O[C@]3(C)[C@@H]1C2	5.14	7.26 µM	–
CC(=O)c1c(O)c(C=O)c(O)c2c1O[C@@]1(C)[C@@H](C2)C[C@H]2C[C@@H]1C2(C)C	5.31	4.93 µM	–
CC(C)CC(=O)c1c(O)c2c(c(C(=O)CC(C)C)c1O)O[C@]1(C)C[C@@H]3[C@H](C[C@@H]1C2)C3(C)C	–	–	> 40 µg/mL
CC(=O)c1c(O)c(C=O)c2c(c1O)CC[C@@]1(CC[C@H]3C[C@@H]1C3(C)C)O2	5.33	4.65 µM	–
CC(C)C[C@H]1C[C@@]2(CC[C@H]3C[C@@H]2C3(C)C)Oc2c(C=O)c(O)c(C=O)c(O)c21	5.29	5.18 µM	–
CC(C)CC(=O)c1c(O)c(C=O)c(O)c2c1O[C@@]1(CCO)[C@@H](C2)C[C@H]2C[C@@H]1C2(C)C	5.11	7.69 µM	–
CC(C)CC(=O)c1c(O)c(C=O)c2c(c1O)C[C@H]1C[C@H]3C[C@H](C3(C)C)[C@@]1(CO)O2	5.35	4.48 µM	–
CC(C)CC(=O)c1c(O)c2c(c(C(=O)CC(C)C)c1O)O[C@@]1(C)[C@H](CC[C@H]3[C@@H]1C3(C)C)C2	–	–	> 40 µg/mL
CC(C)CC(=O)c1c(O)c2c(c(C(=O)CC(C)C)c1O)O[C@@]1(CCO)[C@@H](C2)C[C@H]2C[C@@H]1C2(C)C	–	–	> 40 µg/mL
CC(C)CC(=O)c1c(O)c2c(c(C(=O)CC(C)C)c1O)O[C@@]1(CC2)CC[C@H]2C[C@@H]1C2(C)C	–	–	> 40 µg/mL
CC1(C)[C@H]2C[C@@H]3Cc4c(O)c(C=O)c(O)c(C=O)c4O[C@]3(CCO)[C@@H]1C2	5.21	6.11 µM	–
CC(=O)c1c(O)c(C=O)c(O)c2c1O[C@@]1(CC2)CC[C@H]2C[C@@H]1C2(C)C	5.33	4.65 µM	–
CC1(C)[C@H]2[C@@H]1CC[C@@H]1Cc3c(O)c(C=O)c(O)c(C=O)c3O[C@@]12C	5.29	6.05 µM	–
CC(=O)c1c(O)c(C=O)c(O)c2c1O[C@]1(CC2)[C@@H]2CC[C@@H](C2)C1(C)C	5.35	5.22 µM	–
CC(C)CC(=O)c1c(O)c(C=O)c(O)c2c1O[C@]1(CC2)[C@@H]2CC[C@@H](C2)C1(C)C	5.39	3.62 µM	–
CC1(C)[C@@H]2C[C@@]3(C)Oc4c(C=O)c(O)c(C=O)c(O)c4C[C@H]3C[C@@H]21	5.24	5.75 µM	–
CC(C)CC(=O)c1c(O)c2c(c(C(=O)CC(C)C)c1O)O[C@@]1(CO)[C@@H](C2)C[C@H]2C[C@@H]1C2(C)C	5.16	6.93 µM	–
CC(C)CC(=O)c1c(O)c2c(c(C(=O)CC(C)C)c1O)O[C@]1(CC2)[C@@H]2CC[C@@H](C2)C1(C)C	–	–	> 40 µg/mL
CC1(C)[C@H]2C[C@@H]3Cc4c(O)c(C=O)c(O)c(C=O)c4O[C@]3(CO)[C@@H]1C2	–	–	> 40 µg/mL
CC(C)CC(=O)c1c(O)c(C=O)c(O)c2c1O[C@@]1(CO)[C@@H](C2)C[C@H]2C[C@@H]1C2(C)C	5.13	7.45 µM	–
CC(C)CC(=O)c1c(O)c2c(c(C(=O)CC(C)C)c1O)O[C@@]1(C)[C@@H](C2)C[C@H]2C[C@@H]1C2(C)C	–	–	> 40 µg/mL
CC1(C)[C@H]2CC[C@@]3(CCc4c(O)c(C=O)c(O)c(C=O)c4O3)[C@@H]1C2	5.20	6.35 µM	–
CC(C)C[C@@H]1C[C@@]2(CC[C@H]3C[C@@H]2C3(C)C)Oc2c(C=O)c(O)c(C=O)c(O)c21	5.38	4.14 µM	–

Now from value to compound:

pIC50 (read-out: IC50)	IC50 (read-out: pIC50 (converted))	IC50 (read-out: IC50)	SMILES
6.03	0.931 µM	–	CC(C)CC(=O)c1c(O)c(C=O)c2c(c1O)CC[C@@]1(O2)[C@@H]2CC[C@@H](C2)C1(C)C
5.56	2.73 µM	–	CC(=O)c1c(O)c(C=O)c2c(c1O)C[C@H]1C[C@H]3C[C@H](C3(C)C)[C@@]1(C)O2
6.00	1.01 µM	–	CC(C)CC(=O)c1c(O)c(C=O)c2c(c1O)CC[C@@]1(CC[C@H]3C[C@@H]1C3(C)C)O2 [EUGLOBAL G3]
5.85	1.42 µM	–	CC(C)CC(=O)c1c(O)c(C=O)c(O)c2c1O[C@@]1(C)[C@H](CC[C@H]3[C@@H]1C3(C)C)C2
6.03	0.931 µM	–	CC(C)CC(=O)c1c(O)c(C=O)c2c(c1O)C[C@H]1C[C@H]3C[C@H](C3(C)C)[C@@]1(C)O2 [EUGLOBAL G2]
5.39	4.06 µM	–	CC(=O)c1c(O)c(C=O)c(O)c2c1O[C@]1(C)C[C@@H]3[C@H](C[C@@H]1C2)C3(C)C
5.51	3.1 µM	–	CC(C)CC(=O)c1c(O)c(C=O)c(O)c2c1O[C@@]1(CC2)CC[C@H]2C[C@@H]1C2(C)C [EUGLOBAL G4]
5.64	2.28 µM	–	CC(C)CC(=O)c1c(O)c(C=O)c2c(c1O)C[C@H]1C[C@H]3C[C@H](C3(C)C)[C@@]1(CCO)O2
5.39	4.24 µM	–	CC1(C)[C@H]2CC[C@H](C2)[C@]12CCc1c(O)c(C=O)c(O)c(C=O)c1O2
5.80	1.6 µM	–	CC(C)CC(=O)c1c(O)c(C=O)c(O)c2c1O[C@]1(C)C[C@@H]3[C@H](C[C@@H]1C2)C3(C)C
6.14	0.724 µM	–	CC(C)CC(=O)c1c(O)c(C=O)c2c(c1O)C[C@H]1C[C@H]3[C@@H](C[C@@]1(C)O2)C3(C)C
5.56	2.76 µM	–	CC(=O)c1c(O)c(C=O)c2c(c1O)C[C@H]1C[C@H]3[C@@H](C[C@@]1(C)O2)C3(C)C
5.90	1.25 µM	–	CC(=O)c1c(O)c(C=O)c2c(c1O)CC[C@@]1(O2)[C@@H]2CC[C@@H](C2)C1(C)C
5.74	1.84 µM	–	CC(C)CC(=O)c1c(O)c(C=O)c(O)c2c1O[C@@]1(C)[C@@H](C2)C[C@H]2C[C@@H]1C2(C)C [EUGLOBAL G1]
6.21	0.621 µM	–	CC(C)CC(=O)c1c(O)c(C=O)c2c(c1O)C[C@H]1CC[C@H]3[C@H](C3(C)C)[C@@]1(C)O2

Source: ChEMBL document CHEMBL1800040, “Quantitative structure-activity relationship study of phloroglucinol-terpene adducts as anti-leishmanial agents” (Bioorg Med Chem Lett, 2011)
